# Measured values taken from ChEMBL document CHEMBL3992562, “Multifunctional thioxanthone derivatives with acetylcholinesterase, monoamine oxidases and β-amyloid aggregation inhibitory activities as potential agents against Alzheimer's disease” (Bioorg Med Chem, 2017).
# The source made the active and inactive calls. The rule behind the calls is not given here.
# Assays:
# [1] = system: BuChE (butyrylcholinesterase); test: Inhibition of rat serum BuChE at 50 uM using S-butylthiocholine iodide as substrate measured after 15 mins by Ellman's method relative to control; details: probe S-butylthiocholine iodide
# [2] = Inhibition of cupric ion-mediated amyloid beta (1 to 42) aggregation at 25 uM measured after 24 hrs by ThT fluorescence assay relative to control
# Acetylcholinesterase = Acetylcholinesterase (Electrophorus electricus, UniProt O42275); test: Inhibition of electric eel AChE using acetylthiocholine iodide as substrate measured after 15 mins by Ellman's method
# [3] = Antioxidant activity assessed as trolox equivalent of AAPH-induced radical scavenging activity at 5 uM incubated for 15 mins prior to APPH challenge measured every minute for 90 mins by ORAC-FL assay; assay type: functional
# Homo sapiens = species on record: Homo sapiens; test: Selectivity index, ratio of IC50 for recombinant human MAO-A expressed in baculovirus infected BTI insect cells to IC50 for recombinant human MAO-B expressed in baculovirus infected BTI insect cells
# [4] = biological target: T1, Amine oxidase [flavin-containing] A (Homo sapiens, UniProt P21397); test: Inhibition of recombinant human MAO-A expressed in baculovirus infected BTI insect cells using kynuramine as substrate after 30 mins by fluorimetric method
# T1 sequence (P21397 whole entry): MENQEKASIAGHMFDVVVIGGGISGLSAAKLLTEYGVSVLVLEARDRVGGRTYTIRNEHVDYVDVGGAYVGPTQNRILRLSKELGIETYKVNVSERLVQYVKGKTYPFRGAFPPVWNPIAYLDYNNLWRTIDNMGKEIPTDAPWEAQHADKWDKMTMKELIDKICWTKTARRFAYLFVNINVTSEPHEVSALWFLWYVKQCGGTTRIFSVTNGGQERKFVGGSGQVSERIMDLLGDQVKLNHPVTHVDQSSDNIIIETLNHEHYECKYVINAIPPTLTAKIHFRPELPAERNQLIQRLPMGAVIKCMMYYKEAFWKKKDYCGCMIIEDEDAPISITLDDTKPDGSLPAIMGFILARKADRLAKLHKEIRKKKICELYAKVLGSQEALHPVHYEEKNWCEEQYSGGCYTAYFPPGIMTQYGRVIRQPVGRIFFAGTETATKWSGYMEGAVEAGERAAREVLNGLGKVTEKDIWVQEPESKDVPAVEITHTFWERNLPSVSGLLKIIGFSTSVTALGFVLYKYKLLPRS
# [5] = biological target: T2, Amine oxidase [flavin-containing] B (Homo sapiens, UniProt P27338); test: Inhibition of recombinant human MAO-B expressed in baculovirus infected BTI insect cells using kynuramine as substrate after 30 mins by fluorimetric method; assay type: cell-based
# T2 sequence (P27338 whole entry): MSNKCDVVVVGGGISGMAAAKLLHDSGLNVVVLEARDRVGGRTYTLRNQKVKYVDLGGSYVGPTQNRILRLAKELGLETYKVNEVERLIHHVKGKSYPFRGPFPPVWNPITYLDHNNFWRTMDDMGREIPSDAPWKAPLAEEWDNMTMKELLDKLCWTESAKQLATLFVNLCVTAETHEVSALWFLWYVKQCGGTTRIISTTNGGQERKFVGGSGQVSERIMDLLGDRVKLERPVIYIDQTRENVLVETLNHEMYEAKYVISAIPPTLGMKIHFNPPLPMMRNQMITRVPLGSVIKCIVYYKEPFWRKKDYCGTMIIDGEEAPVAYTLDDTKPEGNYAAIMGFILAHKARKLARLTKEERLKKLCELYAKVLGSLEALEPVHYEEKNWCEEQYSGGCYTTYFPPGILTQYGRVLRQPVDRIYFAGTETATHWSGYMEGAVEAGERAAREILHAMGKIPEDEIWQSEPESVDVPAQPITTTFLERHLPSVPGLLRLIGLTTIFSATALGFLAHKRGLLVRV
# [6] = biological target: Amyloid-beta precursor protein (Homo sapiens) (UniProt P05067); test: Inhibition of self-induced amyloid beta (1 to 42) (unknown origin) aggregation at 25 uM measured after 24 hrs by ThT fluorescence assay relative to control
# [7] = Metal chelating activity assessed as Zn2+-compound complex formation at 37.5 uM after 30 mins by UV-visible spectrometry; assay type: functional
# [8] = Cytotoxicity against human SH-SY5Y cells assessed as cell viability at 100 uM after 24 hrs by MTT assay relative to control; assay type: cell-based; details: read-out: Activity
# [9] = Metal chelating activity assessed as Al3+-compound complex formation at 37.5 uM after 30 mins by UV-visible spectrometry; assay type: functional
# [10] = Cytotoxicity against human SH-SY5Y cells assessed as cell viability at 10 uM after 24 hrs by MTT assay relative to control; assay type: cell-based; details: read-out: Activity
# [11] = Metal chelating activity assessed as Fe2+-compound complex formation at 37.5 uM after 30 mins by UV-visible spectrometry; assay type: functional
# [12] = biological target: Acetylcholinesterase (Electrophorus electricus) (UniProt O42275); test: Mixed-type inhibition of electric eel AChE using acetylthiocholine iodide as substrate preincubated for 15 mins followed by substrate addition by Lineweaver-Burk plot analysis
# [13] = Cytotoxicity against human SH-SY5Y cells assessed as cell viability at 1 uM after 24 hrs by MTT assay relative to control; assay type: cell-based; details: read-out: Activity
# [14] = Permeability of the compound at 100 ug/ml after 18 hrs by PAMPA; assay type: physicochemical; details: read-out: permeability
# [15] = Metal chelating activity assessed as Cu2+-compound complex formation at 37.5 uM after 30 mins by UV-visible spectrometry; assay type: functional
# [16] = Metal chelating activity assessed as mole fraction of compound required to show 1:1.5 stoichiometry for Cu2+-compound complex at 37.5 uM after 30 mins by UV-visible spectrometry; assay type: functional
# [17] = Inhibition of rat serum BuChE using S-butylthiocholine iodide as substrate measured after 15 mins by Ellman's method
# Sequence of Amyloid-beta precursor protein (Homo sapiens) (P05067 whole entry): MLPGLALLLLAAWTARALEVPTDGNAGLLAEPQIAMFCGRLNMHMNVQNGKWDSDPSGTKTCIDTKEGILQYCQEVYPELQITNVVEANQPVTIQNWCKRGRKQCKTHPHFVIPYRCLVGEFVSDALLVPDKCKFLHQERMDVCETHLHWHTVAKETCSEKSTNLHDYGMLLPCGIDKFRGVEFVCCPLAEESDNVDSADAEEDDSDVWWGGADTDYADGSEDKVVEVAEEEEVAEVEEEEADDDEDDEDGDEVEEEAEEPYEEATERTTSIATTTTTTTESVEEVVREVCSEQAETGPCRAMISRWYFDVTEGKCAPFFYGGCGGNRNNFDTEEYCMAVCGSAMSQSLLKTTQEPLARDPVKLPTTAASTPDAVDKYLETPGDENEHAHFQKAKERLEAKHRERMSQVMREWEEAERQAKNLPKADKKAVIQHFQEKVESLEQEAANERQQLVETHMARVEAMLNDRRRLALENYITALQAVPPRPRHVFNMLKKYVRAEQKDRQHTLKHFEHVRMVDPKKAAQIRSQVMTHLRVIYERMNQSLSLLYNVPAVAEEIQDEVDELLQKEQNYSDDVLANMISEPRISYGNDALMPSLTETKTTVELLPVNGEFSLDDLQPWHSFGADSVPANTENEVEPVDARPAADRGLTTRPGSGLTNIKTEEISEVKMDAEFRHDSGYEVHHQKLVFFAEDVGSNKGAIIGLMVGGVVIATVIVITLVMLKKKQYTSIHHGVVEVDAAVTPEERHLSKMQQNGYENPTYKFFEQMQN
# Sequence of Acetylcholinesterase (O42275 whole entry): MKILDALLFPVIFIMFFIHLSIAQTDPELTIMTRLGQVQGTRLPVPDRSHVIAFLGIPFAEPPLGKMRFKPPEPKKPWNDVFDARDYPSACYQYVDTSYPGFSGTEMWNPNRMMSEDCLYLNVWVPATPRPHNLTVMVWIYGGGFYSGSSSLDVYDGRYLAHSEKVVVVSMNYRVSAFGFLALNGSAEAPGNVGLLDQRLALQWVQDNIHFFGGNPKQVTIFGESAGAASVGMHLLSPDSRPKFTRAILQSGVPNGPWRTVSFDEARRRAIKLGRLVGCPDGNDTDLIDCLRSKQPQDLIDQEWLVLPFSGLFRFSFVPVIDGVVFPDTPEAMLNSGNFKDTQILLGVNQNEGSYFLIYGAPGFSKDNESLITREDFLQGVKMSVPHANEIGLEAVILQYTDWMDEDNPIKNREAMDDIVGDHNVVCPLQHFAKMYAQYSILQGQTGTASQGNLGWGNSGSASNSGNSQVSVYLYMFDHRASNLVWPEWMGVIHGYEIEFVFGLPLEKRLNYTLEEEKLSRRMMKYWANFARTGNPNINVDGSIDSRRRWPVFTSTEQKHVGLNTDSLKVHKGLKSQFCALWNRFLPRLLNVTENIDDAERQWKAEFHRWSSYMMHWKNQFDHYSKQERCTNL
# Sequence of Acetylcholinesterase (Electrophorus electricus) (O42275 24-633 limits assumed): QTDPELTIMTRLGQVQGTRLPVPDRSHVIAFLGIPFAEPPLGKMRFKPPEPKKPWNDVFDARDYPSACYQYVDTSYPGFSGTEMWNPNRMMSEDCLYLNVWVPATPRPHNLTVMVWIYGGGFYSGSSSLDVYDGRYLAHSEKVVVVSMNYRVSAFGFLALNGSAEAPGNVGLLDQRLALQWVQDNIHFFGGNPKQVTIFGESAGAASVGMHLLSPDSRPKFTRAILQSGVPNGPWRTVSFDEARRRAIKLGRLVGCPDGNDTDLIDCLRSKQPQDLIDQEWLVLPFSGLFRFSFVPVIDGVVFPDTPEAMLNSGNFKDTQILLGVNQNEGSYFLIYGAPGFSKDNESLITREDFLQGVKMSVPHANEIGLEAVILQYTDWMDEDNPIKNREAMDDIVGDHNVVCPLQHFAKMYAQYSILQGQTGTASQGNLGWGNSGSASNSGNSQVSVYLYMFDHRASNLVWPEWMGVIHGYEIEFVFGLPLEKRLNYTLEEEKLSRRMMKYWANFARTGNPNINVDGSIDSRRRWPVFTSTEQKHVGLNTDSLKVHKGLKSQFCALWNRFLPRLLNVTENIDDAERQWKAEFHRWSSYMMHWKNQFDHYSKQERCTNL
Compound,"inhibition at 0.25 h, 50 µM [1] [%]",inhibition [2] [%],IC50 (Acetylcholinesterase) [nM],Activity [3] [µMequiv/µM],Ratio IC50 (Homo sapiens),IC50 [4] [nM],IC50 [5] [nM],inhibition [6] [%],Activity [7],"viability at 24 h, 100 µM [8] [%]",Activity [9],"viability at 24 h, 10 µM [10] [%]",Activity [11],inhibition [12],"viability at 24 h, 1 µM [13] [%]","Papp at 18 h, 100 ug/ml [14] [×10⁻⁶ cm/s]",Activity [15],Activity [16] [molar ratio],IC50 [17] [nM]
COc1ccccc1CN(C)CCCCCCOc1cc(O)c2c(=O)c3ccccc3sc2c1,14.9,86.5,4280,0.66,2.71,1030,380,68,,,,,,,,,,,
CCN(CCCOc1cc(O)c2c(=O)c3ccccc3sc2c1)Cc1ccccc1OC,17.3,80,2790,0.68,4.35,8170,1880,68.2,,,,,,,,,,,
COc1cc(/C=C/C(=O)CC(=O)/C=C/c2ccc(O)c(OC)c2)ccc1O,,70,,2.43,,,,,,,,,,,,,,,
CCN(CCCCOc1cc(O)c2c(=O)c3ccccc3sc2c1)Cc1ccc(N(C)C)cc1,7.15,81.9,25400,1.5,0.45,1000,2200,77.1,,,,,,,,,,,
CCN(CCCOc1cc(O)c2c(=O)c3ccccc3sc2c1)Cc1ccc(N(C)C)cc1,< 5,85.4,17700,1.38,0.79,2790,3550,64.8,,,,,,,,,,,
CN(CCCCOc1cc(O)c2c(=O)c3ccccc3sc2c1)Cc1ccccc1,< 5,88.6,12400,1.18,1.54,570,370,79.5,,,,,,,,,,,
O=c1c2ccccc2sc2cc(O)cc(O)c12,< 5,31.4,38900,0.42,0.93,280,300,9.5,,,,,,,,,,,
CCN(CCCOc1cc(O)c2c(=O)c3ccccc3sc2c1)Cc1ccccc1,31.8,70.9,18400,0.59,1.85,13200,7130,46.9,,,,,,,,,,,
CCN(CCCCOc1cc(O)c2c(=O)c3ccccc3sc2c1)Cc1ccccc1,< 5,82.1,22000,1,1.26,340,270,75.8,,,,,,,,,,,
COc1ccccc1CN(C)CCCCOc1cc(O)c2c(=O)c3ccccc3sc2c1,5.62,88,9160,1.04,1.05,620,590,79.9,,,,,,,,,,,
CCN(CCCCOc1cc(O)c2c(=O)c3ccccc3sc2c1)Cc1ccccc1OC,< 5,82,15500,0.57,1.16,1020,880,89.4,,,,,,,,,,,
CCN(CCCCCCOc1cc(O)c2c(=O)c3ccccc3sc2c1)Cc1ccccc1N(C)C,28.7,87.7,590,0.74,1.12,1010,900,74.8,inactive,68.1,inactive,96.8,Active,Active,99.7,3.49,Active,1.5,
CCN(CCCOc1cc(O)c2c(=O)c3ccccc3sc2c1)Cc1ccccc1N(C)C,22.4,75.7,250,0.35,1.59,5940,3730,46.9,,,,,,,,,,,
CCN(CCCCCCOc1cc(O)c2c(=O)c3ccccc3sc2c1)Cc1ccccc1,8.83,76.4,580,0.17,4.36,1440,330,50.6,,,,,,,,4.12,,,
CCN(CCCCCCOc1cc(O)c2c(=O)c3ccccc3sc2c1)Cc1ccc(N(C)C)cc1,< 5,91.3,33800,1.37,3.21,1250,390,76.3,,,,,,,,,,,
CN(CCCCCCOc1cc(O)c2c(=O)c3ccccc3sc2c1)Cc1ccccc1,< 5,76.8,320,0.37,1.63,570,350,47.5,,,,,,,,,,,
COc1cc2c(cc1OC)C(=O)C(CC1CCN(Cc3ccccc3)CC1)C2 (centres undefined) [DONEPEZIL],,,,,,,,,,,,,,,,,,,21400
CCN(CCCCCCOc1cc(O)c2c(=O)c3ccccc3sc2c1)Cc1ccccc1OC,13.9,86.3,11500,0.83,2.83,1300,460,78.7,,,,,,,,,,,
COc1ccccc1CN(C)CCCOc1cc(O)c2c(=O)c3ccccc3sc2c1,30.2,77.8,28700,0.22,1.04,6310,6090,45.2,,,,,,,,,,,
CN(CCCOc1cc(O)c2c(=O)c3ccccc3sc2c1)Cc1ccccc1,< 5,81.1,11200,0.48,9.25,16000,1730,40.5,,,,,,,,,,,
CCN(CCCCOc1cc(O)c2c(=O)c3ccccc3sc2c1)Cc1ccccc1N(C)C,30.3,82.1,2880,0.95,0.76,1540,2020,72.1,,,,,,,,,,,
CCN(CCCCOc1ccc(-c2coc3cc(OCCCCN(CC)Cc4ccccc4OC)cc(O)c3c2=O)cc1)Cc1ccccc1OC,20,77.8,,0.3,,,,,,,,,,,,,,,
